From patent US9365522B2, “Pyrazole amide derivative” (AMGEN INC., priority 2015, dated 2016) come the findings set out here.

The experiment addresses T1, ligand binding domain of human ROR gamma (Homo sapiens, UniProt P51449).
T1 construct: NM_001001523; expressed in transfected cells; host or cells: HEK293T
T1 sequence (P51449 247-497 isoform P51449-2): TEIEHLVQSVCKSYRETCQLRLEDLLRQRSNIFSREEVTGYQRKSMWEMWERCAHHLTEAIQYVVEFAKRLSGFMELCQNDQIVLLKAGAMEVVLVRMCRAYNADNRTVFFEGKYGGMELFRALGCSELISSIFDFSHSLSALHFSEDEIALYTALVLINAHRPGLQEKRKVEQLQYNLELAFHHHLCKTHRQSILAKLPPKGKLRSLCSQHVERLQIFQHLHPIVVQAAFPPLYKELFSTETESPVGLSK
The experiment in a line: ROR gamma reporter gene assay (GAL4-RORγ LBD luciferase, Dual-Glo). Particulars: HEK293T cells transfected with pM-ROR gamma, 8 concentrations 3.5 nM to 10.5 μM, 24 h incubation; read-out: result (pIC50, inhibition of RORγ transcriptional activity) (converted). In kind it is cell-based. As to the method: Luciferase reporter gene assay was used to assess inhibition of RORγ transcriptional activity.
ROR gamma expression vector was prepared by inserting the ligand binding domain of human ROR gamma (amino acid 247-497 of Genbank Accession NO. NM_001001523) adjacent to the yeast GAL4 transcription factor DNA binding domain in the expression vector pM (Clontech). The resulting expression vector pM-ROR gamma was used in transfection experiments together with the pGL4 luciferase reporter plasmid (Promega) containing five copies of the UAS GAL4 recognition site and pRL-CMV plasmids (Promega) containing the constitutive CMV promoter and the renilla luciferase.
For preparing transfection reagent/DNA mixture, 1 μg pM-ROR gamma, 1 μg pGL4 5×UAS, 625 pg pRL-CMV and 6.25 μL FuGENE™ HD transfection reagent (Promega) were mixed in 0.25 mL OPTI-MEM™ (Life technologies) at room temperature. At the same time, Negative control DNA mixture was prepared by using 1 μg pM empty vector instead of pM-ROR gamma plasmid. After a fifteen minute incubation, 0.25 mL of transfection reagent/DNA mixture was added to 1,000,000 of HEK293T cells (ATCC) in 5 mL of OPTI-MEM™ containing 10% Charcoal Stripped Fetal Bovine Serum.
Transfected cells were seeded onto 384 well plate (10 μL/well) and the 7.5 nL of test compounds were added to the wells in 8 concentrations ranging from 3.5 nM to 10.5 μM. The compounds were dissolved in 100% DMSO and the final concentration of DMSO in the assay was 0.075%.
After 24 h of incubation at 37° C., 5% CO2 in a cell culture incubator, the Dual-Glo™ Luciferase Assay System was used to detect activity according to the manufacturer's instructions (Promega, Cat. No.: E2920).
Data was plotted and pIC50 values were calculated using the XLfit program (ID Business Solutions Ltd.).
As to `CC(C)CCN(CC(=O)c1c(Cl)cncc1Cl)C(=O)c1cnn([C@H]2CC[C@H](C(=O)O)CC2)c1C(F)(F)F` [Example 32, trans-4-(4-((2-(3,5-dichloropyridin-4-yl)-2-oxoethyl)(isopentyl)carbamoyl)-5-(trifluorornethyl)-1H-pyrazol-1-yl)cyclohexanecarboxylic acid], the IC50 was 81300 pM. With `CC(C)(C)CCN(CC(=O)c1c(Cl)cncc1Cl)C(=O)c1cnn([C@H]2CC[C@H](C(=O)O)CC2)c1C(F)(F)F` [Example 33, trans-4-(4-((2-(3,5-dichloropyridin-4-yl)-2-oxoethyl)(3,3-dimethylbutyl)carbamoyl)-5-(trifluorornethyl)-1H-pyrazol-1-yl)cyclohexanecarboxylic acid], the IC50 is 112000 pM. In the case of `O=C(CN(CCC1CC1)C(=O)c1cnn([C@H]2CC[C@H](C(=O)O)CC2)c1C(F)(F)F)c1c(Cl)cncc1Cl` [Example 34, trans-4-(4-((2-cyclopropylethyl)(2-(3,5-dichloropyridin-4-yl)-2-oxoethyl)carbamoyl)-5-(trifluoromethyl)-1H-pyrazol-1-yl)cyclohexanecarboxyic acid], the IC50 is 1.35e+06 pM. With `CC(C)=CCN(CC(=O)c1c(Cl)cncc1Cl)C(=O)c1cnn([C@H]2CC[C@H](C(=O)O)CC2)c1C(F)(F)F` [Example 35, trans-4-(4-((2-(3,5-dichloropyridin-4-yl)-2-oxoethyl)(3-methylbut-2-en-1-yl)carbamoyl)-5-(trifluoromethyl)-1H-pyrazol-1-yl)cyclohexanecarboxyic acid], the IC50 was 112000 pM. For `CC1(C)CCC(CN(CC(=O)c2c(Cl)cncc2Cl)C(=O)c2cnn([C@H]3CC[C@H](C(=O)O)CC3)c2C(F)(F)F)CC1` [Example 36, trans-4-(4-((2-(3,5-dichloropyridin-4-yl)-2-oxoethyl)((4,4-dimethylcyclohexyl)methyl)carbamoyl)-5-(trifluorornethyl)-1H-pyrazol-1-yl)cyclohexanecarboxylic acid], the IC50 was 117000 pM.

Regarding `O=C(CN(CC1CCC2(CC1)CC2)C(=O)c1cnn([C@H]2CC[C@H](C(=O)O)CC2)c1C(F)(F)F)c1c(Cl)cncc1Cl` [Example 37, trans-4-(4-((2-(3,5-dichloropyridin-4-yl)-2-oxoethyl)(spiro[2.5]octan-6-ylmethyl)carbamoyl)-5-(trifluoromethyl)-1H-pyrazol-1-yl)cyclohexanecarboxylic acid], the IC50 is 18600 pM. As to `O=C(CN(C[C@@H]1CCOC1)C(=O)c1cnn([C@H]2CC[C@H](C(=O)O)CC2)c1C(F)(F)F)c1c(Cl)cncc1Cl` [Example 38, trans-4-(4-((2-(3,5-dichloropyridin-4-yl)-2-oxoethyl)(((S)-tetrahydrofuran-3-yl)methyl)carbamoyl)-5-(trifluoromethyl)-1H-pyrazol-1-yl)cyclohexanecarboxylic acid], the IC50 is 1.55e+06 pM. In the case of `O=C(CN(C[C@H]1CCOC1)C(=O)c1cnn([C@H]2CC[C@H](C(=O)O)CC2)c1C(F)(F)F)c1c(Cl)cncc1Cl` [Example 39, trans-4-(4-((2-(3,5-dichloropyridin-4-yl)-2-oxoethyl)(((R)-tetrahydrofuran-3-yl)methyl)carbamoyl)-5-(trifluoromethyl)-1H-pyrazol-1-yl)cyclohexanecarboxylic acid], the IC50 is above 1e+07 pM. Turning to `O=C(CN(Cc1ccccc1)C(=O)c1cnn([C@H]2CC[C@H](C(=O)O)CC2)c1C(F)(F)F)c1c(Cl)cncc1Cl` [Example 40, trans-4-(4-(benzyl(2-(3,5-dichloropyridin-4-yl)-2-oxoethyl)carbamoyl)-5-(trifluoromethyl)-1H-pyrazol-1-yl)cyclohexanecarboxylic acid], the IC50 is 56200 pM. As to `O=C(CN(Cc1ccc(Cl)cc1)C(=O)c1cnn([C@H]2CC[C@H](C(=O)O)CC2)c1C(F)(F)F)c1c(Cl)cncc1Cl` [Example 41, trans-4-(4-((4-chlorobenzyl)(2-(3,5-dichloropyridin-4-yl)-2-oxoethyl)carbamoyl)-5-(trifluoromethyl)-1H-pyrazol-1-yl)cyclohexanecarboxylic acid], the IC50 is 29500 pM.

Regarding `O=C(CN(Cc1cc(F)cc(F)c1)C(=O)c1cnn([C@H]2CC[C@H](C(=O)O)CC2)c1C(F)(F)F)c1c(Cl)cncc1Cl` [Example 42, trans-4-(4-((2-(3,5-dichloropyridin-4-yl)-2-oxoethyl)(3,5-difluorobenzyl)carbamoyl)-5-(trifluoromethyl)-1H-pyrazol-1-yl)cyclohexanecarboxylic acid], the IC50 is 44700 pM. As for `O=C(CN(Cc1cccc(F)c1F)C(=O)c1cnn([C@H]2CC[C@H](C(=O)O)CC2)c1C(F)(F)F)c1c(Cl)cncc1Cl` [Example 43, trans-4-(4-((2-(3,5-dichloropyridin-4-yl)-2-oxoethyl)(2,3-difluorobenzyl)carbamoyl)-5-(trifluoromethyl)-1H-pyrazol-1-yl)cyclohexanecarboxylic acid], the IC50 was 33900 pM.

As to `O=C(CN(Cc1ccc(F)c(F)c1)C(=O)c1cnn([C@H]2CC[C@H](C(=O)O)CC2)c1C(F)(F)F)c1c(Cl)cncc1Cl` [Example 44, trans-4-(4-((2-(3,5-dichloropyridin-4-yl)-2-oxoethyl)(3,4-difluorobenzyl)carbamoyl)-5-(trifluorornethyl)-1H-pyrazol-1-yl)cyclohexanecarboxylic acid], the IC50 was 14800 pM. In the case of `O=C(CN(Cc1cc(F)ccc1F)C(=O)c1cnn([C@H]2CC[C@H](C(=O)O)CC2)c1C(F)(F)F)c1c(Cl)cncc1Cl` [Example 45, trans-4-(4-((2-(3,5-dichloropyridin-4-yl)-2-oxoethyl)(2,5-difluorobenzyl)carbamoyl)-5-(trifluorornethyl)-1H-pyrazol-1-yl)cyclohexanecarboxylic acid], the IC50 was 58900 pM.

As to `O=C(CN(Cc1ccco1)C(=O)c1cnn([C@H]2CC[C@H](C(=O)O)CC2)c1C(F)(F)F)c1c(Cl)cncc1Cl` [Example 46, trans-4-(4-((2-(3,5-dichloropyridin-4-yl)-2-oxoethyl)(furan-2-ylmethyl)carbamoyl)-5-(trifluoromethyl)-1H-pyrazol-1-yl)cyclohexanecarboxylic acid], the IC50 is 398000 pM. `O=C(CN(Cc1ccoc1)C(=O)c1cnn([C@H]2CC[C@H](C(=O)O)CC2)c1C(F)(F)F)c1c(Cl)cncc1Cl` [Example 47, trans-4-(4-((2-(3,5-dichloropyridin-4-yl)-2-oxoethyl)(furan-3-ylmethyl)carbamoyl)-5-(trifluoromethyl)-1H-pyrazol-1-yl)cyclohexanecarboxylic acid]: the IC50 is 102000 pM. Consider `O=C(CN(Cc1cnccn1)C(=O)c1cnn([C@H]2CC[C@H](C(=O)O)CC2)c1C(F)(F)F)c1c(Cl)cncc1Cl` [Example 48, trans-4-(4-((2-(3,5-dichloropyridin-4-yl)-2-oxoethyl)(pyrazin-2-ylmethyl)carbarnoyl)-5-(trifluoromethyl)-1H-pyrazol-1-yl)cyclohexanecarboxylic acid], for which the IC50 is above 1e+07 pM. For the compound `Cc1cncc(Cl)c1C(=O)CN(Cc1cc(F)cc(F)c1)C(=O)c1cnn([C@H]2CC[C@H](C(=O)O)CC2)c1C(F)(F)F` [Example 49, trans-4-(4-((2-(3-chloro-5-methylpyridin-4-yl)-2-oxoethyl)(3,5-difluorobenzyl)carbamoyl)-5-(trifluoromethyl)-1H-pyrazol-1-yl)cyclohexanecarboxylic acid], the IC50 was 40700 pM. In the case of `O=C(CN(Cc1cc(F)cc(F)c1)C(=O)c1cnn([C@H]2CC[C@H](C(=O)O)CC2)c1C(F)(F)F)c1c(F)cncc1Cl` [Example 50, trans-4-(4-((2-(3-chloro-5-fluoropyridin-4-yl)-2-oxoethyl)(3,5-difluorobenzyl)carbamoyl)-5-(trifluoromethyl)-1H-pyrazol-1-yl)cyclohexanecarboxylic acid], the IC50 was 70800 pM. As to `O=C(CN(Cc1cc(F)cc(F)c1)C(=O)c1cnn([C@H]2CC[C@H](C(=O)O)CC2)c1C(F)(F)F)c1c(F)cncc1F` [Example 51, trans-4-(4-((3,5-difluorobenzyl)(2-(3,5-difluoropyridin-4-yl)-2-oxoethyl)carbamoyl)-5-(trifluoromethyl)-1H-pyrazol-1-yl)cyclohexanecarboxylic acid], the IC50 is 4.07e+06 pM.
